Results on one compound are retold here after USRE39050E1, “Methods of use for inhibiting bone loss and lowering serum cholesterol” (Eli Lilly and Company, priority 1994, dated 2006).

Each structure is given as a SMILES string. Counter-ions that a name gives are not always drawn. Marks after values point to notes of the source that are not given here.

The test system of experiment [1] is healthy post-menopausal women. The experiment can be described thus: 8-week parallel, double-blind, placebo study: markers of bone metabolism (GGGC). Type of experiment: in vivo, human. The conditions noted are these: 8 weeks. As to the method:
(§1) An 8-week parallel, double-blind, placebo study in approximately 160 healthy post-menopausal women was completed. The doses of raloxifene used in this study were 10, 50, and 200 mg. […] (See Table I) Because of development over time seen with many bone markers, a raloxifene dose of 50 mg/day will likely be fully active when evaluated during a study of longer duration.

For experiment [2], the system named is healthy post-menopausal women. The experiment can be described thus: 8-week parallel, double-blind, placebo study: serum lipids (GGGC). Type of experiment: in vivo, human. The note with it: 8 weeks. On the procedure: as §1
Serum lipid levels were affected by raloxifene doses of 50 and 200 mg (Table II).

Regarding `O=C(c1ccc(OCCN2CCCCC2)cc1)c1c(-c2ccc(O)cc2)sc2cc(O)ccc12` [Raloxifene, 6-hydroxy-2-(4-hydroxyphenyl)-3[4-(2-piperidinoethoxy)benzoyl]benzo[b]thiophene, hydrochloride], the “activity with either bone marker (in words)” value in experiment [1] (10 mg dose) is recorded as “no significant activity”. In addition, the “Serum alkaline phosphatase, mean group change from baseline to endpoint” value in experiment [1] (raloxifene 10 mg, n = 42) is 0.21 U/L; in experiment [1] (raloxifene 50 mg, n = 42), −4.78 U/L; in experiment [1] (raloxifene 200 mg, n = 41), −5.93* U/L. The “Serum osteocalcin, mean group change from baseline to endpoint” value in experiment [1] (raloxifene 10 mg, n = 42) is -0.27 ng/mL; in experiment [1] (raloxifene 50 mg, n = 42), -0.81 ng/mL; in experiment [1] (raloxifene 200 mg, n = 41), −1.21* ng/mL. The “LDL cholesterol (in words)” value in experiment [2] (50 mg) is “Decreases”; in experiment [2] (200 mg), “comparable decrease”. In addition, the “HDL:LDL ratios (in words)” value in experiment [2] (both the 50 and 200 mg doses) is recorded as “Statistically significant decreases”. Moreover, the “total serum cholesterol levels (in words)” value in experiment [2] (both the 50 and 200 mg doses) is “Statistically significant decreases”. In addition, the “HDL-C, mean group change from baseline to endpoint” value in experiment [2] (raloxifene 10 mg, n = 42) stood at 0.01 mmol/L; in experiment [2] (raloxifene 50 mg, n = 42) it was 0.04 mmol/L; in experiment [2] (raloxifene 200 mg, n = 41) it was 0.02 mmol/L. For the same compound, the “HDL-C:LDL-C ratio, mean group change from baseline to endpoint” value is given as 0.00 in experiment [2] (raloxifene 10 mg, n = 42); 0.03* in experiment [2] (raloxifene 50 mg, n = 42); 0.03* in experiment [2] (raloxifene 200 mg, n = 41). The “LDL-C, mean group change from baseline to endpoint” value is 0.05 mmol/L in experiment [2] (raloxifene 10 mg, n = 42); −0.23* mmol/L in experiment [2] (raloxifene 50 mg, n = 42); -0.17 mmol/L in experiment [2] (raloxifene 200 mg, n = 41). The “Toal cholesterol, mean group change from baseline to endpoint” value is 0.01 mmol/L in experiment [2] (raloxifene 10 mg, n = 42); −0.23* mmol/L in experiment [2] (raloxifene 50 mg, n = 42); -0.15 mmol/L in experiment [2] (raloxifene 200 mg, n = 41). Also, the “HDL levels (in words)” value in experiment [2] (raloxifene-treated subjects) is “no changes”.
